Values quoted from earlier work, collected in patent publication US20060088612A1, “Composition for treatment of topical infection and methods of making and using same” (priority 2004, published 2006).

System: HSV
Details: topical medication for HSV

SMILES: CCCCCCCCCCCCCCCCCCCCCCO [docosanol]
- effectiveness versus placebo: no more effective than a placebo
